Assay results reported in US5646131A, “Method for solubilizing drugs using cyclodextrins and carboxylic acids” (The Arab Company For Drug Industries And Medical …, priority 1995, dated 1997).
≈ marks a conversion by molar mass, not a printed value. Where two headings read alike, the source gives them in different places.

How the values were obtained:
[1] = 30° C.; for Solubility, beta-cyclodextrin + citric acid / Solubility, beta-cyclodextrin + glutaric acid / Solubility, beta-cyclodextrin + lactic acid / Solubility, beta-cyclodextrin + tartaric acid: 2% β-cyclodextrin; for Solubility, beta-cyclodextrin + lactic acid: 1% lactic acid; for Solubility in 2% aq. beta CD soln.: water containing 2% β-cyclodextrin
Method: (§1) The solubilities (in mg/ml) of the drugs were investigated at 30° C., in water; in water containing 2% β-cyclodextrin; and in aqueous solution of 2% selected cyclodextrin and 1% selected polyfunctional acid or corresponding salt.

physchem = conditions: water
Method: as §1

[2] = with β-cyclodextrin; Menard et al 1990; cited from earlier work

Row | Compound | Solubility, alpha-cyclodextrin + citric acid ([1]; 2% α-cyclodextrin, 1% citric acid, aqueous) | Solubility, alpha-cyclodextrin + glutaric acid ([1]; 2% α-cyclodextrin, 1% glutaric acid, aqueous) | Solubility, alpha-cyclodextrin + tartaric acid ([1]; 2% α-cyclodextrin, 1% tartaric acid, aqueous) | Solubility, beta-cyclodextrin + citric acid ([1]; 1% citric acid, aqueous) | Solubility, beta-cyclodextrin + glutaric acid ([1]; 1% glutaric acid, aqueous) | Solubility, beta-cyclodextrin + lactic acid ([1]; aqueous) | Solubility, beta-cyclodextrin + tartaric acid ([1]; 1% tartaric acid, aqueous) | Solubility, gamma-cyclodextrin + citric acid ([1]; 2% γ-cyclodextrin, 1% citric acid, aqueous) | Solubility, gamma-cyclodextrin + glutaric acid ([1]; 2% γ-cyclodextrin, 1% glutaric acid, aqueous) | Solubility, gamma-cyclodextrin + tartaric acid ([1]; 2% γ-cyclodextrin, 1% tartaric acid, aqueous) | Solubility in 2% aq. beta CD soln. [1] | solubility (physchem) | Solubility in water ([1]; water) | Solubility, beta-cyclodextrin + glutaric acid (*trisodium salt) (2% beta-cd, 1% glutarate salt) | Solubility, beta-cyclodextrin + tartaric acid (*trisodium salt) (2% beta-cd, 1% tartrate salt) | Solubility in 2% aq. beta CD soln. (water, 2% beta-cyclodextrin) | Relationship between solubility and concentration at different pH [2]
1 | CC(C)(C)c1ccc(C(O)CCCN2CCC(C(O)(c3ccccc3)c3ccccc3)CC2)cc1 (stereo not shown) [Terfenadine] | 2.15 mg/mL | 7.17 mg/mL | 1.31 mg/mL | 5.68 mg/mL | 5.49 mg/mL | 8.87 mg/mL | 5.21 mg/mL | 2.20 mg/mL | 6.08 mg/mL | 1.22 mg/mL | 0.01 mg/mL (≈ 21.2 µM) | < 0.01 mg/mL | – | – | – | – | –
2 | COc1cc(N)c(Cl)cc1C(=O)NC1CCN(CCCOc2ccc(F)cc2)CC1OC (stereo not shown) [Cisapride] | – | – | – | 0.55 mg/mL | 2.07 mg/mL | 11.4 mg/mL | 4.38 mg/mL | – | – | – | 0.015 mg/mL (≈ 32.2 µM) | 0.003 mg/mL (≈ 6.44 µM) | – | – | – | – | –
3 | CN1C(C(=O)Nc2ccccn2)=C(O)c2ccccc2S1(=O)=O [Piroxicam] | – | – | – | – | – | – | – | – | – | – | 0.072 mg/mL (≈ 217 µM) | – | insoluble | – | – | – | –
4 | CC(C)Cc1ccc(C(C)C(=O)O)cc1 (stereo not shown) [Ibuprofen] | – | – | – | – | – | – | – | – | – | – | – | < 0.01 mg/mL | – | 3.00 mg/mL | 1.36 mg/mL | 0.69 mg/mL (≈ 3340 µM) | the relationship between solubility and concentration is the same at different pH levels
